Results published in article PMC10578927, “An unconventional gatekeeper mutation sensitizes inositol hexakisphosphate kinases to an allosteric inhibitor” (eLife, 2023).
Read-outs that look alike come from different tables or passages of the source.

Target: T1, IP6K2^wt (Homo sapiens, UniProt Q9UHH9)
T1 construct: made in house; host or cells: E. coli Arctic Express
T1 sequence (Q9UHH9 1-426): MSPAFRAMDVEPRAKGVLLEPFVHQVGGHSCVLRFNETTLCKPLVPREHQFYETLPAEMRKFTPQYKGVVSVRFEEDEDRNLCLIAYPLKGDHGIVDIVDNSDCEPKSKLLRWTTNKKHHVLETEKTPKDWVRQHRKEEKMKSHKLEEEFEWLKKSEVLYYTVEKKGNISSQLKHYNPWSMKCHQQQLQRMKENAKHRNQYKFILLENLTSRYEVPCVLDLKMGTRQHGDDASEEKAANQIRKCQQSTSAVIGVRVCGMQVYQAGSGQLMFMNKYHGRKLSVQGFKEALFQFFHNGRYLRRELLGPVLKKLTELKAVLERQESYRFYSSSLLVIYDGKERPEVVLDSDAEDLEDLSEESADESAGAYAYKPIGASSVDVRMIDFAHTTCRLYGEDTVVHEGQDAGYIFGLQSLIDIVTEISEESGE
Assay: NMR activity assay, [13C6]-InsP6 to 5PP-InsP5
Type: biochemical
Method: The NMR assay for IP6K activity was performed similarly as described before ([Harmel et al., 2019]) with slight alterations. Enzyme assays were performed in D2O in a total volume of 150 µl containing 20 mM 4-(2-hydroxyethyl)-1-piperazineethanesulfonic acid (HEPES) pH* 6.8, 50 mM NaCl, 6 mM MgCl2, 1 mM ATP, 0.2 mg/ml BSA, 1 mM DTT, 5 mM creatine phosphate and 1 U/ml creatine kinase (ATP-regenerating system) and 50 nM kinase if not otherwise stated. HEPES, NaCl, and BSA were prepared as buffer A and DTT and creatine phosphate as buffer B in D2O and were adjusted to pH* 6.8, respectively. If applicable, inhibitor was added as a DMSO-d6 stock in a twofold dilution series at a final DMSO concentration of 1% if not otherwise mentioned. Otherwise, DMSO-d6 was added to the same percentage. The samples were equilibrated at 37°C for 3 min and the reaction initiated by adding 100 µM [^13C6]-InsP6.

## O=C(O)c1ccc2c(c1)C(=O)N(c1ccc(-c3nc4ccc(N5C(=O)c6ccc(C(=O)O)cc6C5=O)cc4[nH]3)cc1)C2=O [FMP-201300]
  IC50: 2140 nM
Figure 4b
  IC50: 2140 nM
